Data: PubChem BioAssay (NCI)
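48-hour exposure; five concentrations; linearly interpolated endpoints. GI50: concentration for 50% inhibition of growth. TGI: concentration producing complete growth inhibition.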

What was measured:
Test in all cases: inhibition of tumour cell growth, NCI panel, 48 h
HCT-116 colon = system: HCT-116 colon
NCI-H226 lung = system: NCI-H226 lung
M14 melanoma = system: M14 melanoma
MALME-3M melanoma = system: MALME-3M melanoma
UACC-62 melanoma = system: UACC-62 melanoma
TK-10 renal = system: TK-10 renal
OVCAR-3 ovarian = system: OVCAR-3 ovarian
HL-60(TB) leukemia = system: HL-60(TB) leukemia
CCRF-CEM leukemia = system: CCRF-CEM leukemia
U251 CNS = system: U251 CNS
RPMI-8226 leukemia = system: RPMI-8226 leukemia
HOP-62 NSCLC = system: HOP-62 NSCLC
MDA-MB-435 = system: MDA-MB-435
MDA-MB-231 breast = system: MDA-MB-231 breast
PC-3 prostate = system: PC-3 prostate
MOLT-4 leukemia = system: MOLT-4 leukemia
EKVX NSCLC = system: EKVX NSCLC
COLO 205 colon = system: COLO 205 colon
A498 renal = system: A498 renal
SF-295 CNS = system: SF-295 CNS
ACHN renal = system: ACHN renal
CAKI-1 renal = system: CAKI-1 renal
HOP-92 NSCLC = system: HOP-92 NSCLC
SF-268 CNS = system: SF-268 CNS
OVCAR-8 ovarian = system: OVCAR-8 ovarian
K-562 leukemia = system: K-562 leukemia
T-47D breast = system: T-47D breast
NCI-H23 lung = system: NCI-H23 lung
SR leukemia = system: SR leukemia
BT-549 breast = system: BT-549 breast
A549 NSCLC = system: A549 NSCLC
HT29 colon = system: HT29 colon
UO-31 renal = system: UO-31 renal
SK-MEL-2 melanoma = system: SK-MEL-2 melanoma
SK-MEL-28 melanoma = system: SK-MEL-28 melanoma
SF-539 CNS = system: SF-539 CNS
HS 578T breast = system: HS 578T breast
LOX IMVI melanoma = system: LOX IMVI melanoma
HCC-2998 colon = system: HCC-2998 colon
SN12C renal = system: SN12C renal
DU-145 prostate = system: DU-145 prostate
786-0 renal = system: 786-0 renal
SW-620 colon = system: SW-620 colon
SK-MEL-5 melanoma = system: SK-MEL-5 melanoma
RXF 393 renal = system: RXF 393 renal
SK-OV-3 ovarian = system: SK-OV-3 ovarian
NCI-H522 lung = system: NCI-H522 lung
SNB-75 CNS = system: SNB-75 CNS
NCI-H460 lung = system: NCI-H460 lung
OVCAR-5 ovarian = system: OVCAR-5 ovarian
IGROV1 ovarian = system: IGROV1 ovarian
UACC-257 melanoma = system: UACC-257 melanoma
KM12 colon = system: KM12 colon
HCT-15 colon = system: HCT-15 colon
OVCAR-4 ovarian = system: OVCAR-4 ovarian
NCI/ADR-RES ovarian = system: NCI/ADR-RES ovarian
SNB-19 CNS = system: SNB-19 CNS
MCF7 breast = system: MCF7 breast

SMILES: COC(=O)c1cc(-c2ccc(S(C)(=O)=O)cc2)[nH]c1N/N=C/c1c(Cl)cccc1Cl
- GI50 (HCT-116 colon): 0.454 µM
- TGI (HCT-116 colon): > 47.9 µM
- GI50 (NCI-H226 lung): 1.02 µM
- TGI (NCI-H226 lung): > 22.9 µM
- GI50 (M14 melanoma): 0.624 µM
- TGI (M14 melanoma): 9.77 µM
- GI50 (MALME-3M melanoma): 1.35 µM
- TGI (MALME-3M melanoma): 23.1 µM
- GI50 (UACC-62 melanoma): 0.391 µM
- TGI (UACC-62 melanoma): > 47.9 µM
- GI50 (TK-10 renal): 0.988 µM
- TGI (TK-10 renal): 38.3 µM
- GI50 (OVCAR-3 ovarian): 0.273 µM
- TGI (OVCAR-3 ovarian): 0.704 µM
- GI50 (HL-60(TB) leukemia): 0.57 µM
- TGI (HL-60(TB) leukemia): > 100 µM
- GI50 (CCRF-CEM leukemia): 0.759 µM
- GI50 (U251 CNS): 0.489 µM
- TGI (U251 CNS): > 54.6 µM
- GI50 (RPMI-8226 leukemia): 0.491 µM
- TGI (RPMI-8226 leukemia): > 39.1 µM
- GI50 (HOP-62 NSCLC): 0.787 µM
- TGI (HOP-62 NSCLC): 32.9 µM
- GI50 (MDA-MB-435): 0.214 µM
- TGI (MDA-MB-435): 0.578 µM
- GI50 (MDA-MB-231 breast): 1.73 µM
- TGI (MDA-MB-231 breast): > 100 µM
- GI50 (PC-3 prostate): 0.565 µM
- TGI (PC-3 prostate): > 50 µM
- GI50 (MOLT-4 leukemia): 0.514 µM
- TGI (MOLT-4 leukemia): > 100 µM
- GI50 (EKVX NSCLC): 1.11 µM
- TGI (EKVX NSCLC): > 76.1 µM
- GI50 (COLO 205 colon): 0.491 µM
- TGI (COLO 205 colon): 4.72 µM
- GI50 (A498 renal): 0.334 µM
- TGI (A498 renal): 4.75 µM
- GI50 (SF-295 CNS): 0.281 µM
- TGI (SF-295 CNS): 3.24 µM
- GI50 (ACHN renal): 2 µM
- TGI (ACHN renal): > 100 µM
- GI50 (CAKI-1 renal): 0.377 µM
- TGI (CAKI-1 renal): 13.9 µM
- GI50 (HOP-92 NSCLC): 0.845 µM
- TGI (HOP-92 NSCLC): > 28.2 µM
- GI50 (SF-268 CNS): 0.587 µM
- TGI (SF-268 CNS): > 56.4 µM
- GI50 (OVCAR-8 ovarian): 1.27 µM
- TGI (OVCAR-8 ovarian): 98.1 µM
- GI50 (K-562 leukemia): 1.87 µM
- TGI (K-562 leukemia): > 100 µM
- GI50 (T-47D breast): 0.374 µM
- TGI (T-47D breast): > 35.7 µM
- GI50 (NCI-H23 lung): 0.75 µM
- TGI (NCI-H23 lung): > 93.7 µM
- TGI (SR leukemia): > 100 µM
- GI50 (BT-549 breast): 0.915 µM
- TGI (BT-549 breast): 62 µM
- GI50 (A549 NSCLC): 0.656 µM
- TGI (A549 NSCLC): > 39.4 µM
- GI50 (HT29 colon): 0.373 µM
- TGI (HT29 colon): 4.45 µM
- GI50 (UO-31 renal): 0.49 µM
- TGI (UO-31 renal): 37.5 µM
- GI50 (SK-MEL-2 melanoma): 0.765 µM
- TGI (SK-MEL-2 melanoma): > 52.9 µM
- GI50 (SK-MEL-28 melanoma): 0.893 µM
- TGI (SK-MEL-28 melanoma): > 58.2 µM
- GI50 (SF-539 CNS): 0.496 µM
- TGI (SF-539 CNS): 4.79 µM
- GI50 (HS 578T breast): 0.318 µM
- TGI (HS 578T breast): 3.45 µM
- GI50 (LOX IMVI melanoma): 1.61 µM
- TGI (LOX IMVI melanoma): > 100 µM
- GI50 (HCC-2998 colon): 0.987 µM
- TGI (HCC-2998 colon): 19.8 µM
- GI50 (SN12C renal): 0.699 µM
- TGI (SN12C renal): > 100 µM
- GI50 (DU-145 prostate): 0.732 µM
- TGI (DU-145 prostate): 5.53 µM
- GI50 (786-0 renal): 0.747 µM
- TGI (786-0 renal): > 32.2 µM
- GI50 (SW-620 colon): 0.362 µM
- TGI (SW-620 colon): > 100 µM
- GI50 (SK-MEL-5 melanoma): 0.427 µM
- TGI (SK-MEL-5 melanoma): 14.5 µM
- GI50 (RXF 393 renal): 1.04 µM
- TGI (RXF 393 renal): > 100 µM
- GI50 (SK-OV-3 ovarian): 0.852 µM
- TGI (SK-OV-3 ovarian): 28.6 µM
- GI50 (NCI-H522 lung): 0.988 µM
- GI50 (SNB-75 CNS): 0.298 µM
- TGI (SNB-75 CNS): 1.93 µM
- GI50 (NCI-H460 lung): 0.367 µM
- TGI (NCI-H460 lung): 10.3 µM
- GI50 (OVCAR-5 ovarian): 4.08 µM
- TGI (OVCAR-5 ovarian): > 100 µM
- GI50 (IGROV1 ovarian): 0.482 µM
- TGI (IGROV1 ovarian): 67.3 µM
- GI50 (UACC-257 melanoma): 2.82 µM
- TGI (UACC-257 melanoma): > 100 µM
- GI50 (KM12 colon): 0.386 µM
- TGI (KM12 colon): 10 µM
- GI50 (HCT-15 colon): 0.463 µM
- TGI (HCT-15 colon): > 100 µM
- GI50 (OVCAR-4 ovarian): 1.7 µM
- TGI (OVCAR-4 ovarian): > 100 µM
- GI50 (NCI/ADR-RES ovarian): 0.343 µM
- TGI (NCI/ADR-RES ovarian): 11.5 µM
- GI50 (SNB-19 CNS): 0.516 µM
- TGI (SNB-19 CNS): > 100 µM
- GI50 (MCF7 breast): 0.329 µM
- TGI (MCF7 breast): 20.8 µM
